Experimental data published in EP1914236A1 (Ortho-McNeil Pharmaceutical, Inc., priority 2002, dated 2003).

Biological target: T1, human B2 bradykinin receptors (Homo sapiens, UniProt P30411)
T1 construct: purchased Receptor Biology, Inc. (Baltimore, MD); host or cells: CHO-K1 cells transfected with the human B2 receptor (membranes)
T1 sequence (P30411 1-391): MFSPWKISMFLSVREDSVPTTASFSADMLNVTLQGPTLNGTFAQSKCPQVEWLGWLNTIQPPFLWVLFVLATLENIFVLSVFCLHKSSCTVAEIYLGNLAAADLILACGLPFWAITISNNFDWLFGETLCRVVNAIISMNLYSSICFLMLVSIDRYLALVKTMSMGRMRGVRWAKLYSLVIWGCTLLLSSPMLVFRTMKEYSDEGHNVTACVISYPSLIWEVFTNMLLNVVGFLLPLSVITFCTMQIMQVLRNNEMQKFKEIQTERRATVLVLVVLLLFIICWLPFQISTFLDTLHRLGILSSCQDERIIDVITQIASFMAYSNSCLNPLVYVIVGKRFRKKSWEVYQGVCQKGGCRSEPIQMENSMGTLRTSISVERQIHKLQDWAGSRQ
Experiment: Bradykinin B2 (BK2) Receptor Binding Assay
Conditions: membranes of CHO-K1 cells transfected with human B2 bradykinin receptors; ~0.25 nM [3H]NPC17731; 60 min at 25°C
Protocol: Cell membranes of CHO-K1 cells transfected with human B2 bradykinin receptors (CH)-hB2) were purchased from Receptor Biology, Inc. (Baltimore,MD).
Samples were harvested on a Brandel Cell Harvester on to Wallac filtermat B sheets (96 sample format), and washed three times with 2 mL cold HEPES-buffer (10 mM, pH 7.5), and dried in a microwave oven.
The data were used to calculate either the % inhibition compared to control binding (when only a single concentration of test compound was evaluated) or a Ki value (when a range of concentrations were tested). Background was subtracted from mean cpm values and % inhibition was calculated as: [(total dpm-test compound dpm)/(total dpm-nonspecific dpm)]x100. Kd and Ki values were calculated using GraphPad PRISM data analysis program.

| Compound | Ki [nM] |
| --- | --- |
| Cc1ccc2cccc(OCc3c(Cl)ccc(N(C)C(=O)Cc4ccc(C(=O)C5CC5)n4C)c3Cl)c2n1 [Compound 32] | 1530 |
| CCn1cc(CC(=O)N(C)c2ccc(Cl)c(COc3cccc4ccc(C)nc34)c2Cl)cc1C(=O)c1ccc(C#N)cc1 [Compound 3, 2-[5-(4-Cyano-benzoyl)-1-ethyl-1H-pyrrol-3-yl]-N-[2,4-dichloro-3-(2-methyl-quinolin-8-yloxymethyl)phenyl]-N-methyl-acetamide] | 532 |
| C=CCN(C(=O)Cc1ccc(C(=O)c2ccc(C#N)cc2)n1C)c1ccc(Cl)c(COc2cccc3ccc(C)nc23)c1Cl [Compound 21] | 514 |
| CC(C)=CC(=O)c1ccc(CC(=O)N(C)c2ccc(Cl)c(COc3cccc4ccc(C)nc34)c2Cl)n1C [Compound 39] | 784 |
| 2-(5-Benzoyl-thiophen-2-yl)-N-[2,4-dimethyl-3-(2-methyl-quinolin-8-yloxymethyl)-phenyl]-N-methyl-acetamide [Compound 108] | 90 |
| Cc1ccc2cccc(OCc3c(Cl)ccc(N(C)C(=O)Cc4ccc(C(=O)Cc5ccccc5)n4C)c3Cl)c2n1 [Compound 28] | 2370 |
| Cc1ccc2cccc(OCc3c(Cl)ccc(N(C)C(=O)Cc4ccc(C(=O)c5ccccn5)n4C)c3Cl)c2n1 [Compound 45] | 579 |
| Cc1ccc2cccc(OCc3c(Cl)ccc(N(C)C(=O)Cc4ccc(C(=O)c5cccc([N+](=O)[O-])c5)n4C)c3Cl)c2n1 [Compound 42] | 688 |

Now from value to compound:

| Ki [nM] | Compound |
| --- | --- |
| 53 | Cc1ccc2cccc(OCc3c(Cl)ccc(N(C)C(=O)Cc4ccc(C(=O)c5ccccc5)s4)c3Cl)c2n1 [Compound 109, 2-(5-Benzoyl-thiophen-2-yl)-N-[2,4-dichloro-3-(2-methyl-quinolin-8-yloxymethyl)-phenyl]-N-methyl-acetamide] |
| 554 | Cc1ccc2cccc(OCc3c(C)ccc(N(C)C(=O)CCc4ccc(C(=O)c5ccccc5)s4)c3C)c2n1 [Compound 104] |
| 393 | Cc1ccc2cccc(OCc3c(Cl)ccc(N(C)C(=O)Cc4ccc(C(=O)c5ccccc5N)n4C)c3Cl)c2n1 [Compound 53] |
| 321 | COc1ccc(C(=O)c2ccc(CCC(=O)N(C)c3ccc(Cl)c(COc4cccc5ccc(C)nc45)c3Cl)s2)cc1 [Compound 107] |
| 583 | Cc1ccc2cccc(OCc3c(Cl)ccc(N(C)C(=O)Cc4ccc(C(=O)c5ccc6c(c5)OCO6)n4C)c3Cl)c2n1 [Compound 50] |
| 47.4 | Cc1nc2c(OCc3c(Cl)ccc(N(C)C(=O)Cc4ccc(C(=O)c5ccc(C#N)cc5)n4C)c3Cl)cccn2c1Br [Compound 102, N-[3-(3-Bromo-2-methyl-imidazo[1,2-a]pyridin-8-yloxymethyl)-2,4-dichlorophenyl]-2-[5-(4-cyano-benzoyl)-1-methyl-1H-pyrrol-2-yl]-N-methyl-acetamide] |
| 143 | CCOc1ccc(C(=O)c2ccc(CCC(=O)N(C)c3ccc(Cl)c(COc4cccc5ccc(C)nc45)c3Cl)n2C)cn1 [Compound 87] |
| 7190 | Cc1ccc2cccc(OCc3c(C)ccc(N(C)C(=O)Cc4ccc(-c5ccccc5)n4C)c3C)c2n1 [Compound 97, N-[2,4-Dimethyl-3-(2-methyl-quinolin-8-yloxymethyl)-phenyl]-N-methyl-2-(1-methyl-5-phenyl-1 H-pyrrol-2-yl)-acetamide] |
| 406 | Cc1ccc2cccc(OCc3c(Cl)ccc(N(C)C(=O)Cc4ccc(C(=O)c5ccc(N)cc5)n4C)c3Cl)c2n1 [Compound 56, 2-[5-(4-Amino-benzoyl)-methyl-1H-pyrrol-2-yl]-N-[2,4-dichloro-3-(2-methyl-quinolin-8-yloxymethyl)-phenyl]-N-methyl-acetamide] |
| 508 | Cc1ccc2cccc(OCc3c(Cl)ccc(N(C)C(=O)Cc4ccc(C(=O)CN(C)c5ccccn5)n4C)c3Cl)c2n1 [Compound 49] |
